Where two headings read alike, the source gives them in different places.
Legend:
[1] = Pharmacokinetics of methylone after single IV, PO or IP administration, plasma LC-MS/MS; type: in vivo, male Sprague Dawley rats; settings: for MRT last: read-out: MRT0-last; for Cmax: rat plasma
Method: The pharmacokinetic properties of methylone after a single administration intravenously (IV), intraperitoneally (IP), or by oral gavage (PO) in male Sprague Dawley rats has been determined using a liquid chromatography tandem mass spectrometry (LC-MS/MS) method that has been established and validated for methylone in the rat. Rats (n=3 per group) received a single dose of methylone: 5 mg/kg IV, 15 mg/kg IP, or 15 mg/kg PO.
To investigate whether the prodrug extends the half-life or alters other basic pharmacokinetic properties of methylone (e.g., Cmax or Tmax), rats are treated with each prodrug IV, IP, or PO. For each compound, three groups of rats are treated as follows: For group 1, a single dose of methylone is administered to 3 male Sprague-Dawley rats by IV bolus at 5 mg/kg. For group 2, a single dose of methylone is administered to 3 male Sprague-Dawley rats by oral gavage (PO) at 15 mg/kg. For group 3, a single dose of methylone is administered to 3 male Sprague-Dawley rats by IP at 15 mg/kg. For all groups, blood samples are collected from each animal at 0.083, 0.25, 0.5, 1, 2, 4, 8, 12, and 24 hours post-dose for the determination of plasma concentrations. The plasma concentrations are quantified by liquid chromatography tandem mass spectrometry (LC-MS/MS). The bioanalytical assay has been established and validated, providing a lower limit of quantification (LLOQ) of 1 ng/mL and an upper limit of quantification (ULOQ) of 3000 ng/mL for methylone. The plasma concentration-time data are analyzed using Phoenix WinNonlin (version 8.3) to characterize the PK properties of the analyte. The non-compartmental analysis model and the linear/log trapezoidal method are applied to calculating the PK parameters.

[2] = test system: rat forced swim test (FST); assay: Rat forced swim test (FST); type: in vivo
Method: All FST studies are performed and scored by an experimenter blind to treatment group and according to standard protocols. Briefly, rats are placed in a circular plexiglass container filled with water. Water temperature is maintained at 22-25° C. and changed for every animal. Day 1 (Training) consists of a 15 min acclimation trial, and Day 2 (Testing, 24 h later) consists of the 5 min test. A time sampling procedure is employed where animals are observed every 5 seconds for the duration of the test session (60 counts or 5 minutes) and scored for immobility (defined as the failure to struggle), swimming (defined as a circular movement around the tank), or climbing (defined as an upwards escape behavior). Data are expressed as the percent of the testing session (e.g., the number of immobility counts divided by 60). A p-value less than 0.05 indicates statistical significance after typical statistical analyses (e.g., unpaired t-test or ANOVA).
To determine that the prodrug and/or enantiomer has an antidepressant-like effect and to compare it to methylone, rats are treated with each compound 30 min prior to testing. Additional tests are run 24, 72, 168 hours post-dose or longer.
Racemic methylone (10 mg/kg, IP) has a maximal antidepressant-like effect in the rat forced swim test (FST), reducing immobility by nearly 100% compared to vehicle treated controls. To determine whether one enantiomer of methylone could mimic the robust antidepressant-like effect of racemic methylone, rats were treated with a single dose of racemic methylone, (R)-methylone, (S)-methylone (all 10 mg/kg, IP) or vehicle 30 min before testing in the FST. […] Therefore, all of the activity of methylone appears to be driven by the activity of one enantiomer ((S)-methylone).

mouse model of PTSD = assay: Fear extinction in a mouse model of PTSD; type: in vivo; settings: 30 mg/kg IP
Method: FIGS. 1A-1D: Methylone improves fear extinction recall in a mouse model of PTSD. (FIG. 1A) Schematic of experimental design. A single CS-US (tone-shock) pairing on day 1 was followed by 6 CS presentations in a novel context (context B). Methylone or saline vehicle was injected 30 min prior to extinction training on day 2. On day 3, the time spent freezing to the CS was quantified. […] (FIG. 1C) The time freezing before vs. during each of 6 cues on day 3 (to control for locomotor effects) are shown. There was a significant cue x drug interaction (F(5, 130)=2.409, p<0.05). […] N=12 for methylone group (30 mg/kg, IP, orange diamonds) and N=16 for saline control group (black squares). *p<0.05
Effective PTSD treatments facilitate the disassociation between a traumatic memory and the patient's fear response, making cues for the traumatic memory evoke less of a fear response. This is modeled in the mouse fear extinction paradigm which takes place over 3 days. On day 1 (fear conditioning), mice are trained to acquire a “traumatic memory,” namely associating the conditioned stimulus (CS, tone) to the unconditioned stimulus (US, foot shock). […] On day 3 (extinction recall), the mice are “asked” if that tone (CS) still elicits a fearful response, as measured by the time spent freezing when the tone is presented. […]

open field test = settings: 5, 10, 20 mg/kg, SC; Štefková et al. 2017; cited from earlier work
PTSD = settings: clinical case series of 21 individuals; cited from earlier work
[3] = self-administration, healthy volunteers; cited from earlier work
[4] = rat; Elmore et al. 2017; cited from earlier work
[5] = male, Sprague Dawley, rat, plasma, IP 15 mg/kg
[6] = male, Sprague Dawley, rat, plasma, IV 5 mg/kg
[7] = male, Sprague Dawley, rat, plasma, PO 15 mg/kg

## CNC(C)C(=O)c1ccc2c(c1)OCO2 (stereo not shown) [Methylone, 3,4-methylenedioxy-N-methylacthinone]
[1]; IP 15 mg/kg
  Tmax: 0.250 ± 0.000 h
[1]; [5]
  AUC(0-t): 4300 ± 1180 ng·h/mL
  half-life: 0.8 ± 0.169 h
  MRT last: 1.07 ± 0.211 h
[1]; [6]
  AUC(0-t): 1200 ± 88.2 ng·h/mL
  C0: 3020 ± 666 ng/mL
  clearance: 68.3 ± 5.4 mL/min/kg
  half-life: 0.362 ± 0.024 h
  MRT last: 0.439 ± 0.026 h
[1]; male, Sprague Dawley, rat, plasma, IV 5 mg/kg, read-out: Vdss
  Vd: 1.98 ± 0.23 L/kg
[1]; [7]
  AUC(0-t): 2760 ± 657 ng·h/mL
  half-life: 3.23 ± 1.99 h
  MRT last: 2.99 ± 0.467 h
[1]; male, Sprague Dawley, rat, plasma, PO 15 mg/kg, read-out: Tmax
  Tmax: 1.33 ± 0.577 h
[1]; male, Sprague Dawley, IP 15 mg/kg
  Cmax: 4230 ± 514 ng/mL
[1]; male, Sprague Dawley, PO 15 mg/kg
  Cmax: 678 ± 243 ng/mL
[2]; single dose 5 mg/kg
  Reduction of immobility compared to vehicle-treated controls: approximately 50%
[2]; single dose 15 mg/kg
  Reduction of immobility compared to vehicle-treated controls: ~100%
Mouse model of PTSD; 30 min prior to extinction training
  Enhancement of fear extinction recall compared to saline controls: ~60%
Mouse model of PTSD; p<0.05
  Freezing time during the first cue on day 3 (extinction recall) compared to saline: significantly reduced
Open field test
  Thigmotaxis (time spent hugging the perimeter of the open field): reduce thigmotaxis
PTSD
  Patients with improved PTSD symptoms: 81%
[3]
  Heart rate: increase in heart rate
  Systolic and diastolic blood pressure: significant increase
[4]
  t1/2: 1 h

Reference: US20240327372A1, “PREPARATION OF PHENE[…] […] STEREOISOMERS THEREOF AND PRECURSORS THEREOF” (priority 2022, published 2024)
